Data as given in patent US20240327411A1, “SIRT6 ACTIVATORS” (The Board of Regents of The University of Texas System, priority 2022, published 2024).
Several values for one entry are separate records, joined by “and”; a condition that tells them apart may be missing. Equal values may be shown once.

Target: Sirt6 (Homo sapiens, UniProt Q8N6T7)
Test: Sirt6-dependent peptide deacetylation, FLUOR DE LYS / Sirt6 fluorometric activity kit
Assay type: biochemical
Conditions: mean ± SD, at least two independent experiments; for Activation Fold 100 μM: compound at 100 μM; for Activation Fold 30 μM: compound at 30 μM
Experimental: Sirt6/Sirt1/Sirt2/Sirt3 activity was tested by Activity Assay Kits (Abcam) according to the manufacturer's instruction with minor modification. […] All experiments were conducted at room temperature.

Chain of Sirt6 (Q8N6T7 whole entry): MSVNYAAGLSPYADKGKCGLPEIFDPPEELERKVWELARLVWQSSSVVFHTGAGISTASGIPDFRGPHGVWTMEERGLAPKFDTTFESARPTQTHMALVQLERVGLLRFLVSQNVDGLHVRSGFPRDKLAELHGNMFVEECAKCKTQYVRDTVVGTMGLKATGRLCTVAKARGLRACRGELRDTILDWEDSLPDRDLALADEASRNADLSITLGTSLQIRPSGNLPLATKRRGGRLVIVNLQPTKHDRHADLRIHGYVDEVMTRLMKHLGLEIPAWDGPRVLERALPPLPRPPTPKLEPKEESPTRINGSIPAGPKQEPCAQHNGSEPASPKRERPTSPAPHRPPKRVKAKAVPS

Compound | Activation Fold 100 μM | Activation Fold 30 μM
Clc1ncccc1C1Nc2ccccc2-n2cccc21 (centres unmarked) [Compound 14, 4-(2-Chloropyridin-3-yl)-4,5-dihydropyrrolo[1,2-a]quinoxaline] | 1.04 ± 0.02 fold | –
CN(C)c1ncccc1C1Nc2ccccc2-n2cccc21 (centres unmarked) [Compound 15, 3-(4,5-Dihydropyrrolo[1,2-a]quinoxalin-4-yl)-N,N-dimethylpyridin-2-amine] | 1.08 ± 0.09 fold | –
OC1CN(c2ncccc2C2Nc3ccccc3-n3cccc32)C1 (centres unmarked) [Compound 17, 1-(3-(4,5-Dihydropyrrolo[1,2-a]quinoxalin-4-yl)pyridin-2-yl)azetidin-3-ol] | 1.47 ± 0.10 fold | –
CN1C[C@@H]2CN(c3ncccc3C3Nc4ccccc4-n4cccc43)C[C@@H]2C1 (stereo partly drawn) [Compound 20, 4-(2-((3aR,6aS)-5-Methylhexahydropyrrolo[3,4-c]pyrrol-2(1H)-yl)pyridin-3-yl)-4,5-dihydropyrrolo[1,2-a]quinoxaline] | 4.24 ± 0.04 fold | 2.00 ± 0.11 fold
FC1(F)CCN(c2ncccc2C2Nc3ccccc3-n3cccc32)CC1 (centres unmarked) [Compound 25, 4-(2-(4,4-Difluoropiperidin-1-yl)pyridin-3-yl)-4,5-dihydropyrrolo[1,2-a]quinoxaline] | ~2 fold and 1.54 ± 0.03 fold | –
O=S1(=O)CCN(c2ncccc2C2Nc3ccccc3-n3cccc32)CC1 (centres unmarked) [Compound 26, 4-(3-(4,5-Dihydropyrrolo[1,2-a]quinoxalin-4-yl)pyridin-2-yl)thiomorpholine 1,1-dioxide] | ~2 fold and 2.24 ± 0.09 fold | 1.32 ± 0.01 fold
COCCCN1CCN(c2ncccc2C2Nc3ccccc3-n3cccc32)CC1 (centres unmarked) [Compound 37, 4-(2-(4-(3-Methoxypropyl)piperazin-1-yl)pyridin-3-yl)-4,5-dihydropyrrolo[1,2-a]quinoxaline] | 5.02 ± 0.25 fold | 3.13 ± 0.14 fold
CN(C)C(=O)CN1CCN(c2ncccc2C2Nc3ccccc3-n3cccc32)CC1 (centres unmarked) [Compound 39, 2-(4-(3-(4,5-Dihydropyrrolo[1,2-a]quinoxalin-4-yl)pyridin-2-yl)piperazin-1-yl)-N,N-dimethylacetamide] | 6.60 ± 0.22 fold | 3.21 ± 0.06 fold
NC(=O)CN1CCN(c2ncccc2C2Nc3ccccc3-n3cccc32)CC1 (centres unmarked) [Compound 41, 2-(4-(3-(4,5-Dihydropyrrolo[1,2-a]quinoxalin-4-yl)pyridin-2-yl)piperazin-1-yl)acetamide] | 3.43 ± 0.48 fold | 1.73 ± 0.12 fold
CN(C)CC(=O)N1CCN(c2ncccc2C2Nc3ccccc3-n3cccc32)CC1 (centres unmarked) [Compound 43, 1-(4-(3-(4,5-Dihydropyrrolo[1,2-a]quinoxalin-4-yl)pyridin-2-yl)piperazin-1-yl)-2-(dimethylamino)ethan-1-one] | 3.78 ± 0.15 fold | 2.31 ± 0.07 fold
O=C(N1CCN(c2ncccc2C2Nc3ccccc3-n3cccc32)CC1)N1CC(O)C1 (centres unmarked) [Compound 44, (4-(3-(4,5-Dihydropyrrolo[1,2-a]quinoxalin-4-yl)pyridin-2-yl)piperazin-1-yl)(3-hydroxyazetidin-1-yl)methanone] | 5.26 fold and 5.26 ± 0.13 fold | 2.67 fold and 2.67 ± 0.19 fold
O=C1CCCN1CCN1CCN(c2ncccc2C2Nc3ccccc3-n3cccc32)CC1 (centres unmarked) [Compound 48, 1-(2-(4-(3-(4,5-Dihydropyrrolo[1,2-a]quinoxalin-4-yl)pyridin-2-yl)piperazin-1-yl)ethyl)pyrrolidin-2-one] | 5.64 ± 0.43 fold | 3.48 ± 0.02 fold
c1ccc2c(c1)NC(c1cccnc1N1CCN(CCN3CCOCC3)CC1)c1cccn1-2 (centres unmarked) [Compound 49, 4-(2-(4-(3-(4,5-Dihydropyrrolo[1,2-a]quinoxalin-4-yl)pyridin-2-yl)piperazin-1-yl)ethyl)morpholine] | 5.99 ± 0.21 fold | 3.02 ± 0.04 fold
CN(C)CCN1CCN(c2ccccc2C2Nc3ccccc3-n3cccc32)CC1 (centres unmarked) [Compound 63, 2-(4-(2-(4,5-Dihydropyrrolo[1,2-a]quinoxalin-4-yl)phenyl)piperazin-1-yl)-N,N-dimethylethan-1-amine] | 5.43 fold and 5.43 ± 0.21 fold | 2.62 fold and 2.62 ± 0.34 fold
CN(C)CCN1CCN(c2ncccc2C2Oc3ccccc3-n3cccc32)CC1 (centres unmarked) [Compound 66, 2-(4-(3-(4H-Benzo[b]pyrrolo[1,2-d][1,4]oxazin-4-yl)pyridin-2-yl)piperazin-1-yl)-N,N-dimethylethan-1-amine] | 4.23 fold and 4.23 ± 0.22 fold | 2.67 fold and 2.67 ± 0.01 fold
Cc1ccc2c(c1)-n1cccc1C(c1cccnc1N1CCN(CCN(C)C)CC1)O2 (centres unmarked) [Compound 68, N,N-Dimethyl-2-(4-(3-(8-methyl-4H-benzo[b]pyrrolo[1,2-d][1,4]oxazin-4-yl)pyridin-2-yl)piperazin-1-yl)ethan-1-amine] | 4.56 ± 0.04 fold | 2.99 ± 0.05 fold
COc1ccc2c(c1)-n1cccc1C(c1cccnc1N1CCN(CCN(C)C)CC1)O2 (centres unmarked) [Compound 69, 2-(4-(3-(8-Methoxy-4H-benzo[b]pyrrolo[1,2-d][1,4]oxazin-4-yl)pyridin-2-yl)piperazin-1-yl)-N,N-dimethylethan-1-amine] | 5.65 ± 0.22 fold | 4.51 ± 0.06 fold
CN(C)CCN1CCN(c2ncccc2C2Oc3ccc(F)cc3-n3cccc32)CC1 (centres unmarked) [Compound 70, 2-(4-(3-(8-Fluoro-4H-benzo[b]pyrrolo[1,2-d][1,4]oxazin-4-yl)pyridin-2-yl)piperazin-1-yl)-N,N-dimethylethan-1-amine] | 2.53 fold and 2.53 ± 0.05 fold | 1.84 ± 0.04 fold
COC(=O)c1ccc2c(c1)OC(c1cccnc1N1CCN(CCN(C)C)CC1)c1cccn1-2 (centres unmarked) [Compound 71, Methyl 4-(2-(4-(2-(dimethylamino)ethyl)piperazin-1-yl)pyridin-3-yl)-4H-benzo[b]pyrrolo[1,2-d][1,4]oxazine-7-carboxylate] | 4.82 ± 0.14 fold | 4.16 ± 0.18 fold
CN(C)CCN1CCN(c2ncccc2C2Oc3cc(CO)ccc3-n3cccc32)CC1 (centres unmarked) [Compound 72, (4-(2-(4-(2-(Dimethylamino)ethyl)piperazin-1-yl)pyridin-3-yl)-4H-benzo[b]pyrrolo[1,2-d][1,4]oxazin-7-yl)methanol] | 2.69 fold and 2.69 ± 0.03 fold | 1.59 ± 0.03 fold

Further lines, results first:

Activation Fold 100 μM | Activation Fold 30 μM | Compound
1.38 ± 0.11 fold | – | c1ccc2c(c1)NC(c1cccnc1N1CCC1)c1cccn1-2 (centres unmarked) [Compound 16, 4-(2-(Azetidin-1-yl)pyridin-3-yl)-4,5-dihydropyrrolo[1,2-a]quinoxaline]
1.22 ± 0.03 fold | – | c1ccc2c(c1)NC(c1cccnc1N1CCCC1)c1cccn1-2 (centres unmarked) [Compound 18, 4-(2-(Pyrrolidin-1-yl)pyridin-3-yl)-4,5-dihydropyrrolo[1,2-a]quinoxaline]
4.23 ± 0.06 fold | 2.18 ± 0.02 fold | CN1CCCN(c2ncccc2C2Nc3ccccc3-n3cccc32)CC1 (centres unmarked) [Compound 19, 4-(2-(4-Methyl-1,4-diazepan-1-yl)pyridin-3-yl)-4,5-dihydropyrrolo[1,2-a]quinoxaline]
4.62 fold and 4.62 ± 0.12 fold | 2.44 fold and 2.44 ± 0.04 fold | CN1CCN(c2ncccc2C2Nc3ccccc3-n3cccc32)CC1 (centres unmarked) [Compound 21, 4-(2-(4-Methylpiperazin-1-yl)pyridin-3-yl)-4,5-dihydropyrrolo[1,2-a]quinoxaline]
2.74 fold and 2.74 ± 0.10 fold | 1.60 ± 0.01 fold | CC(=O)N1CCN(c2ncccc2C2Nc3ccccc3-n3cccc32)CC1 (centres unmarked) [Compound 22, 1-(4-(3-(4,5-Dihydropyrrolo[1,2-a]quinoxalin-4-yl)pyridin-2-yl)piperazin-1-yl)ethan-1-one]
3.63 fold and 3.63 ± 0.10 fold | 2.03 ± 0.02 fold | CS(=O)(=O)N1CCN(c2ncccc2C2Nc3ccccc3-n3cccc32)CC1 (centres unmarked) [Compound 23, 4-(2-(4-(Methylsulfonyl)piperazin-1-yl)pyridin-3-yl)-4,5-dihydropyrrolo[1,2-a]quinoxaline]
~2 fold and 2.38 ± 0.15 fold | 1.29 ± 0.05 fold | OC1CCN(c2ncccc2C2Nc3ccccc3-n3cccc32)CC1 (centres unmarked) [Compound 27, 1-(3-(4,5-Dihydropyrrolo[1,2-a]quinoxalin-4-yl)pyridin-2-yl)piperidin-4-ol]
3.44 fold and 3.44 ± 0.07 fold | 1.89 ± 0.01 fold | c1ccc2c(c1)NC(c1cccnc1N1CCC(N3CCCC3)CC1)c1cccn1-2 (centres unmarked) [Compound 29, 4-(2-(4-(Pyrrolidin-1-yl)piperidin-1-yl)pyridin-3-yl)-4,5-dihydropyrrolo[1,2-a]quinoxaline]
4.74 ± 0.26 fold | 2.37 ± 0.04 fold | N#CCN1CCN(c2ncccc2C2Nc3ccccc3-n3cccc32)CC1 (centres unmarked) [Compound 40, 2-(4-(3-(4,5-Dihydropyrrolo[1,2-a]quinoxalin-4-yl)pyridin-2-yl)piperazin-1-yl)acetonitrile]
2.84 ± 0.28 fold | 1.93 ± 0.02 fold | O=C(CCl)N1CCN(c2ncccc2C2Nc3ccccc3-n3cccc32)CC1 (centres unmarked) [Compound 42, 2-Chloro-1-(4-(3-(4,5-dihydropyrrolo[1,2-a]quinoxalin-4-yl)pyridin-2-yl)piperazin-1-yl)ethan-1-one]
5.85 ± 0.01 fold | 2.81 ± 0.01 fold | c1ccc2c(c1)NC(c1cccnc1N1CCN(CCN3CCC3)CC1)c1cccn1-2 (centres unmarked) [Compound 45, 4-(2-(4-(2-(Azetidin-1-yl)ethyl)piperazin-1-yl)pyridin-3-yl)-4,5-dihydropyrrolo[1,2-a]quinoxaline]
